COc1ccc(Cl)cc1C(=O)NCCc1ccc(S(=O)(=O)NC(=O)NC2CCCCC2)cc1
solubility (mole fraction)
Conditions	288.15 K	293.15 K	298.15 K	303.15 K	308.15 K	313.15 K	318.15 K	323.15 K
in acetonitrile	8e-05	0.000106	0.000144	0.000184	0.000231	0.0003	0.00043	0.000571
in isopropanol	0.000106	0.000121	0.000168	0.000231	0.000309	0.000404	0.000577	0.000863
in methanol	0.000181	0.000229	0.000289	0.000365	0.000451	0.000614	0.000941	0.00131
in n-propanol	0.000155	0.000193	0.000237	0.000302	0.000428	0.000572	0.000751	0.00097
in water	9.02e-08	1.02e-07	1.26e-07	1.57e-07	2.18e-07	3.04e-07	4.35e-07	7.67e-07

— BigSolDB 2.1
